# Test results as given in US11345702B1 (Myoforte Therapeutics, Inc., priority 2020, dated 2022).
# Like-named read-outs stand apart in the source and are kept apart here.
# Tests used:
# Solubility at pH 7.4 = assay type: physicochemical; conditions: aqueous buffer, pH 7.4, read-out: Solubility at pH 7.4
# [1] = Liver microsome stability assay (RLM); assay type: in vitro ADME; conditions: rat liver microsomes
# Experimental: (§1) A microsomal mixture (microsomes and Kphos buffer) was prepared at a concentration of 1.428 mg/mL in 2 mL tubes. To this microsomal mixture 1.6 μL (1 mM) of test compound and positive control were spiked; from this mixture, 70 μL was transferred to 96 well plate and pre-incubated at 37° C. for 5 min. After pre-incubation, the zero minute time point reaction was stopped using 100 μL of ice-cold acetonitrile containing internal standard and […] (3.33 mM in Kphos buffer) was added. The 45 minute time point reaction was initiated by addition of 30 μL of NADPH (3.33 mM in Kphos buffer) and incubated at 37° C. for 15 and 45 min. Reactions without NADPH and buffer controls (minus NADPH) at 0, 15, and 45 minutes were also incubated to rule out non-NADPH metabolism or chemical instability in the incubation buffer. Incubation reactions were stopped with 100 μL of ice-cold acetonitrile containing internal standard. The plates were centrifuged at 4000 RPM for 15 min and 100 μL aliquots were submitted for analysis by LC-MS/MS. (Verapamil in human liver microsomes (HLM) and rat liver microsomes (RLM) was used as positive controls. Imipramine in mouse liver microsomes (MLM) was used as a positive control.) Samples were monitored for parent compound disappearance in MRM mode (multiple reaction monitoring) using LC-MS/MS. The peak area ratios of analyte versus internal standard were used to calculate the % remaining at the end of 45 minutes in the presence of NADPH.
# 15-PGDH/HPGD = 15-PGDH/HPGD (Homo sapiens (Human), UniProt P15428); assay: hPGDH inhibitor screening biochemical assay; conditions: read-out: hPGDH: Average IC50
# Sequence of 15-PGDH/HPGD (P15428 whole entry): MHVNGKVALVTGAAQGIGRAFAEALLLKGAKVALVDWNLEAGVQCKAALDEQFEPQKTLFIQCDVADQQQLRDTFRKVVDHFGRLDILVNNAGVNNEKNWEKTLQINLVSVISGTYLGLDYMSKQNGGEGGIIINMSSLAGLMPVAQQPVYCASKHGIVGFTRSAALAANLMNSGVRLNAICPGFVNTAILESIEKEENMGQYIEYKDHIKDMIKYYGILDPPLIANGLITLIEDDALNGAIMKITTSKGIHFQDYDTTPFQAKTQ
# Outline: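 Ten-point dose-response inhibition of 15-PGDH measured by fluorescence (340/485 nm) after 10 min at room temperature with PGE2 (15 μM) and NAD+ (0.25 mM), following 10 min enzyme (10 nM)–compound pre-incubation at 37 °C. Buffer: 50 mM Tris-HCl pH 7.5, 0.01% Tween 20. Percent inhibition relative to 1% DMSO; four-parameter IC50.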
# [2] = Liver microsome stability assay (MLM); assay type: in vitro ADME; conditions: mouse liver microsomes
# Experimental: as §1
Structure (SMILES),solubility (Solubility at pH 7.4; phenyl core) [µM],solubility (Solubility at pH 7.4; 6-5 ring core) [µM],RLM + NADPH (% remaining at 45 min) [1] [%],IC50 (15-PGDH/HPGD) [nM],MLM + NADPH (% remaining at 45 min) [2] [%]
COc1ccccc1C(=O)N(C)c1ccc(C(=O)N2CCCCC2)cc1 [drawing 229],160,–,–,–,–
COc1ccccc1C(=O)Nc1ccc(C(=O)N2CCCCC2)cc1 [drawing 231],29,–,–,–,–
COc1ccc(-n2cnc3cc(C(=O)N4CCC(F)CC4)cnc32)cc1 [drawing 192],–,140,–,–,–
COc1ccc(-n2nc(Cl)c3cc(C(=O)N4CCC(F)CC4)ccc32)cc1 [MF-DH-246],–,–,46,100 to 1000,–
COc1ccc(-n2c(C)nc3cc(C(=O)N4CCCCC4)cnc32)cc1 [MF-DH-205],–,–,78,< 100,–
COCCc1nc2cc(C(=O)N3CCCCC3)cnc2n1-c1ccc(OC)cc1 [MF-DH-267],–,–,67,100 to 1000,–
"COc1ccc(-n2cc(C)c3cc(C(=O)N4CCC(F)CC4)ccc32)cc1 [MF-DH-190, (4-fluoropiperidin-1-yl)(1-(4-methoxyphenyl)-3-methyl-1H-indol-5-yl)methanone]",–,–,29,< 100,–
O=C(c1cnc2c(c1)ncn2-c1cccc(OC(F)(F)F)c1)N1CCCCC1 [MF-DH-227],–,–,48,100 to 1000,–
O=C(c1cnc2c(c1)ncn2-c1ccc(F)cc1)N1CCCCC1 [MF-DH-215],–,–,45,< 100,–
"COc1ccc(-n2nnc3cc(C(=O)N4CCC(F)CC4)ccc32)cc1 [MF-DH-242, (4-fluoropiperidin-1-yl)(1-(4-methoxyphenyl)-1H-benzo[d][1,2,3]triazol-5-yl)methanone]",–,–,51,< 100,–
CCOc1ccc(-n2cnc3cc(C(=O)N4CCCCC4)cnc32)cc1 [MF-DH-225],–,–,40,< 100,–
O=C(c1cnc2c(c1)ncn2-c1cccc(Cl)c1)N1CCCCC1 [drawing 219],–,150,–,–,–
COc1ccccc1NC(=O)c1ccc(C(=O)N2CCCCC2)cc1 [drawing 232],88,–,–,–,–
COc1ccc(-n2c(C3CC3)nc3cc(C(=O)N4CCCCC4)ccc32)cc1 [drawing 218],–,45,–,–,–
"COc1ccc(-n2nnc3cc(C(=O)N4CCCCC4)ccc32)cc1 [MF-DH-243, (1-(4-methoxyphenyl)-1H-benzo[d][1,2,3]triazol-5-yl)(piperidin-1-yl)methanone]",–,–,34,< 100,–
O=C(c1cnc2c(ccn2-c2ccc3c(c2)OC(F)(F)O3)c1)N1CCCCC1 [MF-DH-249],–,–,29,< 100,–
COc1ccc(-n2c(C)nc3cc(C(=O)N4CCC(F)CC4)ccc32)cc1 [MF-DH-187],–,–,17,< 100,–
CCC(CC)n1cnc2cc(C(=O)N3CCC(F)CC3)cnc21 [MF-DH-201],–,–,48,≥ 1000,–
O=C(c1cnc2c(c1)ncn2-c1ccc(OC(F)(F)F)cc1)N1CCC(F)CC1 [MF-DH-218],–,–,34,100 to 1000,–
O=C(c1cnc2c(c1)ncn2-c1ccc(F)c(F)c1)N1CCC(F)CC1 [MF-DH-216],–,–,64,100 to 1000,–
O=C(c1cnc2c(c1)ncn2-c1ccc(OC(F)(F)F)cc1)N1CCCCC1 [MF-DH-219],–,–,26,< 100,–

Structure (SMILES),solubility (Solubility at pH 7.4; phenyl core) [µM],solubility (Solubility at pH 7.4; 6-5 ring core) [µM],RLM + NADPH (% remaining at 45 min) [1] [%],IC50 (15-PGDH/HPGD) [nM],MLM + NADPH (% remaining at 45 min) [2] [%]
O=C(c1cnc2c(c1)ncn2-c1cccc(OC(F)F)c1)N1CCC(F)CC1 [MF-DH-228],–,–,69,100 to 1000,–
COc1ccc(-n2nc(Cl)c3cc(C(=O)N4CCCCC4)ccc32)cc1 [MF-DH-247],–,–,22,100 to 1000,–
CCC(CC)n1cnc2cc(C(=O)N3CCCCC3)ccc21 [MF-DH-237],–,–,0,< 100,–
O=C(c1cnc2c(c1)ncn2-c1cccc(OC(F)F)c1)N1CCCCC1 [MF-DH-229],–,–,39,100 to 1000,–
COc1ccc(-n2ccc3cc(C(=O)N4CCC(F)CC4)ccc32)cc1 [MF-DH-189],–,–,23,< 100,–
O=C(c1cnc2c(c1)ncn2-c1ccc(F)cc1)N1CCC(F)CC1 [MF-DH-214],–,–,60,100 to 1000,–
COc1ccc(-n2c(CCC(F)(F)F)nc3cc(C(=O)N4CCCCC4)cnc32)cc1 [MF-DH-268],–,–,60,100 to 1000,–
"CC(C)(C)NC(=O)c1ccc(-n2ccc3cc(C(=O)N4CCC(F)(F)CC4)cnc32)cn1 [MF-DH-406, N-(tert-butyl)-5-(5-(4,4-difluoropiperidine-1-carbonyl)-1H-pyrrolo[2,3-b]pyridin-1-yl)picolinamide]",–,–,–,< 100,66
O=C(c1cnc2c(c1)ncn2-c1ccc(F)c(F)c1)N1CCCCC1 [MF-DH-217],–,–,34,< 100,–
COc1ccc(-n2ccc3c(C)c(C(=O)N4CCCCC4)cnc32)cc1 [MF-DH-287],–,–,44,< 100,–
"O=C(Nc1cc(C2CC2)[nH]n1)c1cccc(-n2ccc3cc(C(=O)N4CCC(F)(F)CC4)cnc32)c1 [MF-DH-498, N-(5-cyclopropyl-1H-pyrazol-3-yl)-3-(5-(4,4-difluoropiperidine-1-carbonyl)-1H-pyrrolo[2,3-b]pyridin-1-yl)benzamide]",–,–,–,< 100,0
CCc1nc2cc(C(=O)N3CCC(F)CC3)ccc2n1-c1ccc(OC)cc1 [MF-DH-193],–,–,0,< 100,–
"O=C(O)c1ccc(-n2ccc3cc(C(=O)N4CCC(F)(F)CC4)cnc32)cn1 [MF-DH-434, 5-(5-(4,4-difluoropiperidine-1-carbonyl)-1H-pyrrolo[2,3-b]pyridin-1-yl)picolinic acid]",–,–,–,< 100,94
COc1ccc(-n2c(C)nc3cc(C(=O)N4CCCCC4)ccc32)cc1 [MF-DH-206],–,–,9,< 100,–
COc1ccc(-n2ncc3cc(C(=O)N4CCCCC4)ccc32)cc1 [MF-DH-245],–,–,16,< 100,–
"O=C(c1cnc2c(ccn2-c2cncc(-c3n[nH]c(C4CC4)n3)c2)c1)N1CCC(F)(F)CC1 [MF-DH-517, (1-(5-(5-cyclopropyl-1H-1,2,4-triazol-3-yl)pyridin-3-yl)-1H-pyrrolo[2,3-b]pyridin-5-yl)(4,4-difluoropiperidin-1-yl)methanone]",–,–,–,< 100,47
"CCC(CC)NC(=O)c1ccc(-n2ccc3cc(C(=O)N4CCC(F)(F)CC4)cnc32)cn1 [MF-DH-437, 5-(5-(4,4-difluoropiperidine-1-carbonyl)-1H-pyrrolo[2,3-b]pyridin-1-yl)-N-(pentan-3-yl) picolinamide]",–,–,–,< 100,25
NC(=O)c1cncc(-n2cc(Cl)c3cc(C(=O)N4CCC(F)(F)CC4)cnc32)c1 [MF-DH-482],–,–,–,< 100,103
"CC(C)(C)CNC(=O)c1cncc(-n2ccc3cc(C(=O)N4CCC(F)(F)CC4)cnc32)c1 [MF-DH-405, 5-(5-(4,4-difluoropiperidine-1-carbonyl)-1H-pyrrolo[2,3-b]pyridin-1-yl)-N-neopentylnicotinamide]",–,–,–,< 100,86
"NC(=O)c1ccc(-n2cc(Cl)c3cc(C(=O)N4CCCCC4)cnc32)cc1 [MF-DH-383, 4-(3-chloro-5-(piperidine-1-carbonyl)-1H-pyrrolo[2,3-b]pyridin-1-yl)benzamide]",–,–,–,< 100,12
O=C(c1cnc2c(c1)ncn2-c1ccc(OC(F)F)cc1)N1CCCCC1 [MF-DH-223],–,–,74,< 100,–
